Results: patent US20240158392A1 (Janssen Biotech, Inc., priority 2021, published 2024)
Read-outs that look alike come from different tables or passages of the source.

Biological target: SIK2 (Homo sapiens, UniProt Q9H0K1)
Assay: SIK2 Enzymatic Assay High Version 2 (High ATP)
Format: biochemical
In short: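 At room temperature, enzyme (6 nM, 2× final) was preincubated with compound for 30 min, then 6 mM ATP and 400 μM HDAC5tide (both 2× final) were added for 2 h. ADP formed was measured by ADP-Glo Max (2 h reagent, 1 h detection) using luminescence.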

[1] = enzyme 6 nM, 6 mM ATP and 400 μM HDAC5tide (each 2× final concentration), 30 minutes pre-incubation, 2 hours, ADP-Glo Max luminescence, read-out: SIK2 high ATP IC50 (μM) (Test Example 2)

Sequence of SIK2 (Q9H0K1 whole entry, species assumed): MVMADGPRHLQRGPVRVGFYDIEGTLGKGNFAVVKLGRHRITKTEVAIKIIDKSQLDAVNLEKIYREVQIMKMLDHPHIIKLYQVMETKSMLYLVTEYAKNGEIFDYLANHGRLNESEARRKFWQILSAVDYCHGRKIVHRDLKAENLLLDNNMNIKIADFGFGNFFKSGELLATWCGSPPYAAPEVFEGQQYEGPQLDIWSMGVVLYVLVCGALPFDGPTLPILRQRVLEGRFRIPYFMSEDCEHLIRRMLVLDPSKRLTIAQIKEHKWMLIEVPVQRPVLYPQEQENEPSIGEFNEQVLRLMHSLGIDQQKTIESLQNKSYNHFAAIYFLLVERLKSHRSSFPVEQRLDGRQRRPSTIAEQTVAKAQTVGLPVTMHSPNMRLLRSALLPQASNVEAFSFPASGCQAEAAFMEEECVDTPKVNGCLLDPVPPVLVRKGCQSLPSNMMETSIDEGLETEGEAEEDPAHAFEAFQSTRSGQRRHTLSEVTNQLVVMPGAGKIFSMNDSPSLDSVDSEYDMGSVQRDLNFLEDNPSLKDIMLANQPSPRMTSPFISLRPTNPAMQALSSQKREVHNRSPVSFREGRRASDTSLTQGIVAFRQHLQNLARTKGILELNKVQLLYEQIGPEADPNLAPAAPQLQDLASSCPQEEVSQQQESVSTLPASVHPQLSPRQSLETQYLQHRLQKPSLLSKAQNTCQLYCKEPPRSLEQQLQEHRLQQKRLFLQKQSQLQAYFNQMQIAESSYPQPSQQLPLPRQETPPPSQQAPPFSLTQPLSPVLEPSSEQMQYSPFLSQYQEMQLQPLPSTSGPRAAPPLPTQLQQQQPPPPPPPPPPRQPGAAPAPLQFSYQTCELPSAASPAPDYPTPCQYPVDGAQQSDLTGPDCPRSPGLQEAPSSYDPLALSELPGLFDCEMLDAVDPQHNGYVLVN

SMILES | IC50 [1] [µM] | IC50 [µM]
Cc1cc(-c2ccn3nc(NC(=O)C4CC4)cc3c2)c(O[C@H]2CN(C)[C@H]2C)cn1 (single isomer, unassigned) [Example 456, (*S, *S)—N-[5-[5-(1,2-dimethylazetidin-3-yl)oxy-2-methyl-4-pyridyl]pyrazolo[1,5-a]pyridin-2-yl]cyclopropanecarboxamide] |  | 0.0204
Cc1cnc(Nc2cc3cc(-c4cc(C)ncc4O[C@H]4C[C@H]5COC[C@@H](C4)N5C)ccn3n2)cn1 [Example 416, 5-[2-methyl-5-[[(1S,5R,7s)-9-methyl-3-oxa-9-azabicyclo[3.3.1]nonan-7-yl]oxy]-4-pyridyl]-N-(5-methylpyrazin-2-yl)pyrazolo[1,5-a]pyridin-2-amine] |  | < 0.000847
Cc1cc(-c2ccn3nc(NC(=O)C4CC4(F)F)cc3c2)c(OC[C@H]2CCN2C)cn1 (stereo partly drawn) [Example 624, 2,2-difluoro-N-[5-[2-methyl-5-[[(2R)-1-methylazetidin-2-yl]methoxy]-4-pyridyl]pyrazolo[1,5-a]pyridin-2-yl]cyclopropanecarboxamide] |  | 0.00329
Cc1cc(-c2ccn3nc(Nc4cnn(C)c4)cc3c2)c(O[C@H]2C[C@H]3COC[C@@H](C2)N3)cn1 [Example 123, 7-endo-5-[2-methyl-5-[[(1S,5R)-3-oxa-9-azabicyclo[3.3.1]nonan-7-yl]oxy]-4-pyridyl]-N-(1-methylpyrazol-4-yl)pyrazolo[1,5-a]pyridin-2-amine] |  | 0.00094
Cc1cc(-c2ccn3nc(Nc4cc(C)nc(C)n4)cc3c2)c(OC[C@@H]2CC3(CCCC3)CO2)cn1 (single isomer, unassigned) [Example 219, (*S)—N-(2,6-dimethylpyrimidin-4-yl)-5-[2-methyl-5-(8-oxaspiro[4.4]nonan-7-ylmethoxy)-4-pyridyl]pyrazolo[1,5-a]pyridin-2-amine] | 0.0497 | 
CNC(=O)c1c(OC)cc(Nc2cc3cc(-c4cc(C)ncc4O[C@H]4CC[C@H](O)CC4)ccn3n2)cc1OC [Example 331, 4-[[5-[5-(4-hydroxycyclohexoxy)-2-methyl-4-pyridyl]pyrazolo[1,5-a]pyridin-2-yl]amino]-2,6-dimethoxy-N-methyl-benzamide] | 0.0366 | 
CO[C@]1(COc2cnc(C)cc2-c2ccn3nc(NC(=O)C4CC4)cc3c2)CCNC1 (single isomer, unassigned) [Example 214, (*R)—N-[5-[5-[(3-methoxypyrrolidin-3-yl)methoxy]-2-methyl-4-pyridyl]pyrazolo[1,5-a]pyridin-2-yl]cyclopropanecarboxamide] | 0.0324 | 
Cc1cc(-c2ccn3nc(NC(=O)[C@@H]4C[C@H]4C)cc3c2)c(O[C@@H]2[C@@H]3CO[C@H]2CN3)cn1 [Example 463, (1R,2R)-2-methyl-N-[5-[2-methyl-5-[[(1S,4S,7R)-2-oxa-5-azabicyclo[2.2.1]heptan-7-yl]oxy]-4-pyridyl]pyrazolo[1,5-a]pyridin-2-yl]cyclopropanecarboxamide] |  | 0.0107
CC(=O)N1[C@@H]2COC[C@H]1C[C@@H](Oc1cnc(C)cc1-c1ccn3nc(NC(=O)C4CC4)cc3c1)C2 [Example 339, N-[5-[5-[[(1S,5R)-9-acetyl-3-oxa-9-azabicyclo[3.3.1]nonan-7-yl]oxy]-2-methyl-4-pyridyl]pyrazolo[1,5-a]pyridin-2-yl]cyclopropanecarboxamide] |  | 0.00231
Cc1cc(Nc2cc3cc(-c4cc(OC(F)F)ncc4OCC(C)(N)C(F)(F)F)ccn3n2)nc(C)n1 (single isomer, unassigned) [Example 756, (*S)-5-[5-(2-amino-3,3,3-trifluoro-2-methyl-propoxy)-2-(difluoromethoxy)-4-pyridyl]-N-(2,6-dimethylpyrimidin-4-yl)pyrazolo[1,5-a]pyridin-2-amine] | 0.275 | 
Cc1cc(-c2ccn3nc(NC(=O)C4CC4)cc3c2)c(O[C@@H]2CCC[C@@H](O)C2)cn1 (single isomer, unassigned) [Example 194, trans-N-(5-(5-(((1*R,3*R)-3-hydroxycyclohexyl)oxy)-2-methylpyridin-4-yl)pyrazolo[1,5-a]pyridin-2-yl)cyclopropanecarboxamide] | 0.0412 | 
Cc1cc(-c2ccn3nc(NC(=O)C4CC4)cc3c2)c(OC[C@@]23C[C@@H](CO2)N(C)C3)cn1 [Example 237, N-[5-[2-methyl-5-[[(1S,4S)-2-methyl-5-oxa-2-azabicyclo[2.2.1]heptan-4-yl]methoxy]-4-pyridyl]pyrazolo[1,5-a]pyridin-2-yl]cyclopropanecarboxamide] | 0.0282 | 
Cc1cc(-c2ccn3nc(Nc4cc(C)nc(C)n4)cc3c2)c(OCC2CC(=O)N(C)C2)cn1 (racemic) [Example 542, (rac-)-4-[[4-[2-[(2,6-dimethylpyrimidin-4-yl)amino]pyrazolo[1,5-a]pyridin-5-yl]-6-methyl-3-pyridyl]oxymethyl]-1-methyl-pyrrolidin-2-one] | 0.0425 | 
Cc1cc(-c2ccn3nc(Nc4cc(C)nc(C)n4)cc3c2)c(OC[C@H]2CC3(CCC3)CO2)cn1 (single isomer, unassigned) [Example 607, (*R)—N-(2,6-dimethylpyrimidin-4-yl)-5-[2-methyl-5-(7-oxaspiro[3.4]octan-6-ylmethoxy)-4-pyridyl]pyrazolo[1,5-a]pyridin-2-amine] | 0.1 | 
N#Cc1cc(-c2ccn3nc(NC(=O)C4CC4)cc3c2)c(OC[C@H]2C[C@@H](NCc3ccccc3)C2)cn1 [Example 599, N-[5-[5-[[3-(benzylamino)cyclobutyl]methoxy]-2-cyano-4-pyridyl]pyrazolo[1,5-a]pyridin-2-yl]cyclopropanecarboxamide] | 0.141 | 
Cc1cc(-c2ccn3nc(Nc4cc(C)nc(C)n4)cc3c2)c(OC[C@H]2CC[C@H](O)CO2)cn1 (single isomer, unassigned) [Example 347, (3*S,6*S)-6-[[4-[2-[(2,6-dimethylpyrimidin-4-yl)amino]pyrazolo[1,5-a]pyridin-5-yl]-6-methyl-3-pyridyl]oxymethyl]tetrahydropyran-3-ol] |  | 0.0352

Second part, led by results:

IC50 [1] [µM] | SMILES | IC50 [µM]
0.0195 | Cc1cc(-c2ccn3nc(NC(=O)C4CC4)cc3c2)c(OC[C@@H](O)C2CCCCC2)cn1 (single isomer, unassigned) [Example 197, (*S)—N-(5-(5-(2-cyclohexyl-2-hydroxyethoxy)-2-methylpyridin-4-yl)pyrazolo[1,5-a]pyridin-2-yl)cyclopropanecarboxamide] | 
0.00102 | CC#Cc1cc(-c2ccn3nc(NC(=O)C4CC4)cc3c2)c(O[C@@H]2CNC[C@@H]2F)cn1 [Example 281, N-[5-[5-[(3R,4S)-4-fluoropyrrolidin-3-yl]oxy-2-prop-1-ynyl-4-pyridyl]pyrazolo[1,5-a]pyridin-2-yl]cyclopropanecarboxamide] | 
0.011 | CNC(=O)c1cc(C)nc(Nc2cc3cc(-c4cc(OC(F)F)ncc4OCC(C)(C)C#N)ccn3n2)c1 [Example 715, 2-[[5-[5-(2-cyano-2-methyl-propoxy)-2-(difluoromethoxy)-4-pyridyl]pyrazolo[1,5-a]pyridin-2-yl]amino]-N,6-dimethyl-pyridine-4-carboxamide] | 
0.00878 | Cc1cc(-c2ccn3nc(Nc4cc(C)nc(C)n4)cc3c2)c(OC[C@@H]2CCO[C@@H]2C)cn1 (single isomer, unassigned) [Example 207, N-(2,6-dimethylpyrimidin-4-yl)-5-(2-methyl-5-(((2*R,3*S)-2-methyltetrahydrofuran-3-yl)methoxy)pyridin-4-yl)pyrazolo[1,5-a]pyridin-2-amine] | 
0.001 | CC(C)(C#N)COc1cnc(OC(F)F)cc1-c1ccn2nc(Nc3cncc(N)n3)cc2c1 [Example 691, 3-[[4-[2-[(6-aminopyrazin-2-yl)amino]pyrazolo[1,5-a]pyridin-5-yl]-6-(difluoromethoxy)-3-pyridyl]oxy]-2,2-dimethyl-propanenitrile] | 
0.0138 | Cc1cc(-c2ccn3nc(Nc4cc(C)nc(C)n4)cc3c2)c(OCC2(C(N)=O)CC2)cn1 [Example 313, 1-[[4-[2-[(2,6-dimethylpyrimidin-4-yl)amino]pyrazolo[1,5-a]pyridin-5-yl]-6-methyl-3-pyridyl]oxymethyl]cyclopropanecarboxamide] | 
0.0239 | COc1cc(Nc2cc3cc(-c4cc(C)ncc4O[C@H]4CC[C@H](O)CC4)ccn3n2)cc(OC)c1C(=O)NC1CC1 [Example 245, N-cyclopropyl-4-[[5-[5-(4-hydroxycyclohexoxy)-2-methyl-4-pyridyl]pyrazolo[1,5-a]pyridin-2-yl]amino]-2,6-dimethoxy-benzamide] | 
0.00844 | Cc1cc(-c2ccn3nc(Nc4cc(C)nc(C)n4)cc3c2)c(OCC(C)(O)C(F)(F)F)cn1 (single isomer, unassigned) [Example 263, (*S)-3-[[4-[2-[(2,6-dimethylpyrimidin-4-yl)amino]pyrazolo[1,5-a]pyridin-5-yl]-6-methyl-3-pyridyl]oxy]-1,1,1-trifluoro-2-methyl-propan-2-ol] | 
0.00837 | Cc1cc(-c2ccn3nc(NC(=O)[C@@H]4C[C@H]4C)cc3c2)c(OC[C@@]23CN[C@@H](CO2)C3)cn1 [Example 234, (1R,2R)-2-methyl-N-[5-[2-methyl-5-[[(1R,4R)-5-oxa-2-azabicyclo[2.2.1]heptan-4-yl]methoxy]-4-pyridyl]pyrazolo[1,5-a]pyridin-2-yl]cyclopropanecarboxamide] | 
0.00712 | Cc1cc(-c2ccn3nc(NC(=O)C4CC4)cc3c2)c(OC[C@@]23CN[C@@H](CO2)C3)cn1 [Example 248, N-[5-[2-methyl-5-[[(1R,4R)-5-oxa-2-azabicyclo[2.2.1]heptan-4-yl]methoxy]-4-pyridyl]pyrazolo[1,5-a]pyridin-2-yl]cyclopropanecarboxamide] | 
0.00121 | CC(C)(C#N)COc1cnc(OCC(F)F)cc1-c1ccn2nc(Nc3cccnn3)cc2c1 [Example 688, 3-[[6-(2,2-difluoroethoxy)-4-[2-(pyridazin-3-ylamino)pyrazolo[1,5-a]pyridin-5-yl]-3-pyridyl]oxy]-2,2-dimethyl-propanenitrile] | 
